# Laboratory results: patent publication US20230407373A1 (priority 2020, published 2023)
# Assays:
# [1] = tested on: HCoV-OC43 gRNA and sgRNA; type: binding
# [2] = tested on: gRNA of HCoV-OC43; type: binding
substance,measurement,setting,value
"SLTM: host protein, UniProt Q9NWH9","target (unweighted spectral count, OC43 Probe II capture)","[1]; 36 hpi, type n_36_v, tested against no-probe control, FDR<10%",6
same,"target (unweighted spectral count, OC43 Probe II)","[1]; type n_48_v, 48 hpi, OC43 Probe II capture on infected cells",8
same,"background (unweighted spectral count, no-probe control)","[1]; type n_48_v, 48 hpi, no-probe control on infected cells",1
same,target (spectral count),"[2]; type g_36_m, HCoV-OC43-infected HCT-8 cells, 36 hpi, Probe I",10
same,background (spectral count),"[2]; type g_36_m, uninfected-probe control, 36 hpi, Probe I",1
same,"target (spectral count, OC43 Probe I RNP capture)","[2]; type n_48_v: 48 hours post-infection, infected cells, OC43 Probe I, unweighted spectral count",11
same,"background (spectral count, no-probe control)","[2]; type n_48_v: 48 hours post-infection, no-probe control on infected cells",1
